# Results: patent US20250186408A1, “TREATMENT OF PHARMACORESISTANT EPILEPSY” (Katholieke Universiteit Leuven, priority 2021, published 2025)
# Read-outs that look alike come from different tables or passages of the source.
# Assays:
# 47 common off-targets = test: Safety47 panel in vitro pharmacological profiling (overall); settings: for potential off-targets (number): 78 functional assays, 47 off-targets, up to 10 μM
# Procedure: The following assays were performed: (1) GPCR cAMP modulation, (2) calcium mobilization, (3) nuclear hormone receptor assays, (4) KINOMEscan binding assays, (5) ion channel assays, (6) transporter assays and (7) enzymatic assays. Compounds were tested in a range of 10 concentrations, following a 3-fold serial dilution, starting from 10 μM. The assays were performed utilizing the PathHunter enzyme fragment complementation (EFC) technology, FLIPR®-based cellular screening assays, and KINOMEscan kinase binding assays.
# HTR1A = target: T1, HTR1A (Homo sapiens, UniProt P08908); test: cAMP HTR1A Antagonist; settings: for Emax: read-out: Max response
# T1 sequence (P08908 1-422): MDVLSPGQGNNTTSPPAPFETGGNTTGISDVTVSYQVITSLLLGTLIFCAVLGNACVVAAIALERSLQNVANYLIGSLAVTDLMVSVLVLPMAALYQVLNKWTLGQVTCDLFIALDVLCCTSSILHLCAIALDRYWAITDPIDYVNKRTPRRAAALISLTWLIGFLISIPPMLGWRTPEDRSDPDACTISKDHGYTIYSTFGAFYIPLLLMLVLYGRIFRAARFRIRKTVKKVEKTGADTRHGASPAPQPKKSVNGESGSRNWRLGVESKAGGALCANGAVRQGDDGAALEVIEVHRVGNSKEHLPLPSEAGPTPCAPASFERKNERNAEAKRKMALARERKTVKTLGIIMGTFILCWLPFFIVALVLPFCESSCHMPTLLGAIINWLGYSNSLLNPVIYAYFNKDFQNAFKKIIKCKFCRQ
# Procedure: (§1) In vitro pharmacological profiling of compounds was done against 78 functional assays for 47 common off-targets (30) by Eurofins DiscoverX Corporation (Fremont, CA, USA) using their SAFETYscan E/IC50 ELECT service (Cat Ref 87-1003DR, Safety47 Panel Dose Response). […] Compounds were tested in a range of 10 concentrations, following a 3-fold serial dilution, starting from 10 μM.
# (§2) cAMP Hunter cell lines were expanded from freezer stocks. Prior to testing, cells were seeded in a total volume of 20 μL into white walled 384-well microplates and incubated at 37° C. cAMP modulation was determined using the DiscoverX HitHunter cAMP XS+ assay. For Gs agonist determination, cells were incubated with sample to induce response. For Gi agonist determination, cells were incubated with sample in the presence of EC80 forskolin to induce response. For both conditions, media was aspirated from cells and replaced with 15 μL 2:1 HBSS/10 mM HEPES:cAMP XS+ Ab reagent. Intermediate dilution of sample stocks was performed to generate 4× sample in assay buffer (containing 4×EC80 forskolin in the case of antagonist determination). 5 μL of 4× sample was added to cells and incubated at 37° C. or room temperature (RT) for 30 or 60 min. Final assay vehicle concentration was 1%. For antagonist determination, cells were pre-incubated with sample followed by agonist challenge at the EC80 concentration. Media was aspirated from cells and replaced with 10 μL 1:1 HBSS/HEPES:cAMP XS+ Ab reagent. 5 μL of 4× compound was added to the cells and incubated at 37° C. or RT for 30 min. 5 μL of 4×EC80 agonist was added to the cells and incubated at 37° C. or RT for 30 or 60 min. For Gi coupled GPCRs, EC80 forskolin was included. […] Microplates were read following signal generation with a PerkinElmer Envision™ instrument for chemiluminescent signal detection. Compound activity was analyzed using CBIS data analysis suite (ChemInnovation, CA).
# ADRA2A = target: T2, ADRA2A (Homo sapiens, UniProt P08913); test: cAMP ADRA2A Agonist; settings: for Emax: read-out: Max response
# T2 sequence (P08913 1-465): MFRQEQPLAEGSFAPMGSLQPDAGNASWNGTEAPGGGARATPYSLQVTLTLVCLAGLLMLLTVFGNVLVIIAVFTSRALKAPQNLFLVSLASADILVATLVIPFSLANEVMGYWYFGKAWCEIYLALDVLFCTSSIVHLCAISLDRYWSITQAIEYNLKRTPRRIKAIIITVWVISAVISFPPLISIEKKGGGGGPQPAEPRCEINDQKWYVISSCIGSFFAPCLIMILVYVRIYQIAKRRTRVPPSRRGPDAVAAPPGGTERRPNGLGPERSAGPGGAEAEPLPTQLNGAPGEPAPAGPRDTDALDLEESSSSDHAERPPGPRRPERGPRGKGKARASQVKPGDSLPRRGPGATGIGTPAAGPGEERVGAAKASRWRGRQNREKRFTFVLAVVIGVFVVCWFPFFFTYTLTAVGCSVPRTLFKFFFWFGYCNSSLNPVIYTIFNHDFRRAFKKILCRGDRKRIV
# Procedure: (§3) In vitro pharmacological profiling of compounds was done against 78 functional assays for 47 common off-targets (30) by Eurofins DiscoverX Corporation (Fremont, CA, USA) using their SAFETYscan E/IC50 ELECT service (Cat Ref 87-1003DR, Safety47 Panel Dose Response). […] Compounds were tested in a range of 10 concentrations, following a 3-fold serial dilution, starting from 10 μM. The assays were performed utilizing the PathHunter enzyme fragment complementation (EFC) technology, FLIPR®-based cellular screening assays, and KINOMEscan kinase binding assays.
# as §2
# [1] = Intrinsic clearance (liver microsomes); type: in vitro ADME; settings: pooled liver microsomes, pH 7.4, human liver microsomes
# From the text: In vitro ADME profiling of compounds was done by Eurofins Panlabs Inc (St Charles, MO, USA) using their ADME-Tox service (Cat Ref P375, Tier 1 ADME Panel). […] (28). The atom-based log P calculation method, called OsirisP, uses as an increment system and adds contributions of every atom based on its atom type. The prediction engine distinguishes a total of 368 atom types and was optimized using a training set of more than 5000 molecules with experimentally determined log P values. The free prediction engine has proven to outperform many alternative calculation methods (29).
# Metabolic stability of the test compounds was evaluated in pooled liver microsomes from human species. Test compounds were pre-incubated with liver microsomes in phosphate buffer (pH 7.4) in a 37° C. shaking water bath for 5 min and an NADPH-generating system was added to initiate the reaction. Samples were collected at time points of 0, 15, 30, 45 and 60 min and extracted with acetonitrile/methanol. After centrifugation, the supernatants were analysed by HPLC-MS/MS. T1/2 was calculated from the slope of the line obtained by plotting the natural logarithmic percentage (Ln %) of the test compound remaining in the reaction mixture vs. incubation time (min). CLint (μL/min/mg protein) was calculated from T1/2 using following equation: […]
# [2] = test system: EKP-induced epileptiform discharges in zebrafish larvae; test: Zebrafish EKP seizure model, electrophysiology (non-invasive LFP recordings, PSD analysis); type: in vivo, zebrafish (Danio rerio); settings: 7 dpf larvae; for effect on EKP-induced elevated PSD (in words): 22 h; for efficacy against EKP-induced epileptiform discharges 2 μM / efficacy against EKP-induced epileptiform discharges 10 μM: 22 h incubation, mean, normalized PSD 20-90 Hz
# Procedure: Non-invasive LFP recordings were measured from the midbrain (optic tectum) of 7 dpf zebrafish larvae pre-incubated with VHC only, EKP only, or compound and EKP. […] These steps occurred at 28° C., while further manipulation and electrophysiological recordings occurred at room temperature (±21° C.) and were performed as described before (16, 27). Each recording lasted 600 seconds.
# A power spectral density (PSD) analysis of the recordings was performed using MatLab R2019 software (MATrix LABoratory, USA) as described in (26). The PSD estimate of each LFP recording was summed over each 10 Hz frequency band, ranging from 0 to 160 Hz. Next, the PSD estimates were normalized against the VHC control. Data are expressed as mean±SEM PSD per larva and per condition over the 20-90 Hz region. Outliers were identified via the ROUT test (Q=1%).
# PSD analysis assumes that the epileptiform activity manifests as a high-power oscillation at certain frequencies (26). Thus, if epileptic activity occurs often during the recording an elevated PSD estimate should be found at the corresponding frequency band(s) (26).
# AVPR1A = AVPR1A (Homo sapiens, UniProt P37288); test: Calcium Flux AVPR1A Agonist; type: cell-based; settings: for EC50: read-out: RC50, result type EC50; for Emax: read-out: Max response
# Procedure: (≤0.2% DMSO concentration). Assays were performed in 1× dye loading buffer consisting of 1× Dye (DiscoverX, Calcium No Wash^PLUS kit, Catalog No. 90-0091), 1× Additive A and 2.5 mM Probenecid in HBSS/20 mM HEPES. Probenecid was prepared fresh. Prior to testing, media was aspirated from cells and replaced with 25 μL dye loading buffer. Cells were incubated for 45 min at 37° C. and then 20 min at RT. For agonist determination, 25 μL of 2× compound in HBSS/20 mM HEPES was added using a FLIPR Tetra (MDS). […] 25 μL of 2× sample was added and cells were incubated for 30 min at RT in the dark to equilibrate plate temperature. After incubation, antagonist determination was initiated by addition of 25 μL of 1× compound with 3×EC80 agonist using FLIPR. For both agonist and antagonist formats, activity was measure on a FLIPR Tetra (MDS). Calcium mobilization was monitored for 2 min with a 5 sec baseline read.
# FLIPR read—Area under the curve, was calculated for the entire 2 min read.
# HTR2B = HTR2B (Homo sapiens, UniProt P41595); test: Calcium Flux HTR2B Agonist; settings: for Emax: read-out: Max response
# Procedure: as §3
# Prior to testing, cells (10,000 cells/well) were expanded from freezer stocks and seeded into a total volume of 50 μL into black walled, clear-bottom, Poly-D-lysine coated 384-well microplates and incubated at 37° C. […] Assays were performed in 1× dye loading buffer consisting of 1× Dye (DiscoverX, Calcium No Wash^PLUS kit, Catalog No. 90-0091), 1× Additive A and 2.5 mM Probenecid in HBSS/20 mM HEPES. Probenecid was prepared fresh. Prior to testing, media was aspirated from cells and replaced with 25 μL dye loading buffer. Cells were incubated for 45 min at 37° C. and then 20 min at RT. For agonist determination, 25 μL of 2× compound in HBSS/20 mM HEPES was added using a FLIPR Tetra (MDS). For antagonist determination, cells were pre-incubated with sample followed by agonist challenge at the EC80 concentration. 25 μL of 2× sample was added and cells were incubated for 30 min at RT in the dark to equilibrate plate temperature. After incubation, antagonist determination was initiated by addition of 25 μL of 1× compound with 3×EC80 agonist using FLIPR. For both agonist and antagonist formats, activity was measure on a FLIPR Tetra (MDS). Calcium mobilization was monitored for 2 min with a 5 sec baseline read.
# FLIPR read—Area under the curve, was calculated for the entire 2 min read. Compound activity was analysed using CBIS data analysis suite (ChemInnovation, CA).
# OPRK1 = OPRK1 (Homo sapiens, UniProt P41145); test: cAMP OPRK1 Agonist; settings: for Emax: read-out: Max response
# OPRK1, sequence (P41145 whole entry): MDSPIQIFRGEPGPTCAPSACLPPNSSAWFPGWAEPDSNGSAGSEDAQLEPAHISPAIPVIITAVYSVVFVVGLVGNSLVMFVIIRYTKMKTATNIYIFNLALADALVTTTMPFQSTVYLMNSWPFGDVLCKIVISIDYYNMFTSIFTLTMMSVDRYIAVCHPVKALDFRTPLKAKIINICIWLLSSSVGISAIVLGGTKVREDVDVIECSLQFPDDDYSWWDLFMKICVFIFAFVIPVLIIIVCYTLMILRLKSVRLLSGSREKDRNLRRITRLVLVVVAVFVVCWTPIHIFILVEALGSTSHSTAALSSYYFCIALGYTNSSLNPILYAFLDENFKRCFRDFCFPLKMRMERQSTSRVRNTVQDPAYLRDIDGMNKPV
# Procedure: as §1, §2
# AVPR1A, sequence (P37288 whole entry): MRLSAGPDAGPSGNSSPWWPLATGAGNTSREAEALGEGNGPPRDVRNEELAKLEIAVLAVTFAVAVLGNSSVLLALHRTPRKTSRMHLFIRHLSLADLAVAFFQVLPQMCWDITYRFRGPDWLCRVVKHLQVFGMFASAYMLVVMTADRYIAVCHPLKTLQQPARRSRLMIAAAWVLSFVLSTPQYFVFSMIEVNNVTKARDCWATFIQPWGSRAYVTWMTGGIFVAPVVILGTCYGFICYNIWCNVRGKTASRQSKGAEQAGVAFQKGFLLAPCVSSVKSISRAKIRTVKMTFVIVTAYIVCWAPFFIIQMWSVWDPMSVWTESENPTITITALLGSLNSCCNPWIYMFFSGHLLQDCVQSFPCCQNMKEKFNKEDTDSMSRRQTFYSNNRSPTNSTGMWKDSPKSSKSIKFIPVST
# HTR2B, sequence (P41595 whole entry): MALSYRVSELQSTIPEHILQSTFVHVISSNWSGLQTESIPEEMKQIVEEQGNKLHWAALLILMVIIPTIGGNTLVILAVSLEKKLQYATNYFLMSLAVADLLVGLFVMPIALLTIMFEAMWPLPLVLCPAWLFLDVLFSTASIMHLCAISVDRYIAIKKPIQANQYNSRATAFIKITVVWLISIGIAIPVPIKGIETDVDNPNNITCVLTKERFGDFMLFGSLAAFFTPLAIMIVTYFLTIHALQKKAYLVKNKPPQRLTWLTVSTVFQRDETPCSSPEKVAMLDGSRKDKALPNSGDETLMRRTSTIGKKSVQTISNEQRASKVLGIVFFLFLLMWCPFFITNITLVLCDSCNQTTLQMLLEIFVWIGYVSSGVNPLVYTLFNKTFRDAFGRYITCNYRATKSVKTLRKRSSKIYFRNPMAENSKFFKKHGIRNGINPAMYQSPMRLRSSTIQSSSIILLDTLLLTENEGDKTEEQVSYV
Structure (SMILES),potential off-targets (number) (47 common off-targets),"IC50 (47 common off-targets; read-out: IC50 values at the potential off-targets, CHRM2, DRD2S, HTR1B, nAChR a4/b2) [µM]",IC50 (HTR1A) [µM],Emax (HTR1A) [%],EC50 (ADRA2A) [µM],Emax (ADRA2A) [%],half-life at 100 nM [1] [min],microsomal CLint at 100 nM [1] [µL/min/mg],effect on EKP-induced elevated PSD (in words) ([2]; 2 μM),efficacy against EKP-induced epileptiform discharges 2 μM ([2]; 2 μM) [%],effect on EKP-induced elevated PSD (in words) ([2]; 10 μM),efficacy against EKP-induced epileptiform discharges 10 μM ([2]; 10 μM) [%],EC50 (AVPR1A; Calcium Flux AVPR1A Agonist) [µM],Emax (AVPR1A) [%],EC50 (HTR2B) [µM],Emax (HTR2B) [%],EC50 (OPRK1) [µM],Emax (OPRK1) [%],Emax (AVPR1A; Calcium Flux AVPR1A Agonist) [%]
"CC(C)(C)c1ccc(C#CC(O)c2ccccc2)cc1 (racemic) [Compound 3.3, rac-3-(4-(tert-butyl)phenyl)-1-phenylprop-2-yn-1-ol]",4,4 to 8,> 10,47.2,> 10,0,19,381,remained effective,54,significant decrease,82,> 10,8.7,> 10,0,> 10,0,
"Clc1cccc(C#Cc2n[nH]c3ncccc23)c1 [Compound 10.1, 3-((3-chlorophenyl)ethynyl)-1H-pyrazolo[3,4-b]pyridine]",none,,> 10,0,> 10,20.7,10,748,did not,−30,significant decrease,77,> 10,,> 10,0,> 10,5.4,7.9
